From patent US20240269170A1, “Treatment of Inflammatory Conditions or Diseases” (Queen Mary University of London, priority 2021, published 2024)

Legend:
[1] = test system: K/B×N serum induced arthritis in C57BL/6 mice; test: Sustained K/B×N serum induced arthritis, MCTR3 given 10 days after disease onset; assay type: in vivo, mouse
Procedure: (§1) (A-D) K/B×N serum (100 μL via intraperitoneal injection, i.p.) was administered to C57BL/6 mice on days 0, 2 and 8 to initiate and prolong inflammatory arthritis. Mice were treated 1 μg/mouse MCTR3 or vehicle (PBS+0.1% EtOH) on day 10, 12 and 14 via intravenous (i.v.) injection. Disease course was assessed by evaluating A) clinical scores and B) paw oedema daily. Results are mean±SEM, n=9 mice per group. Statistical differences were evaluated using a Two-Way ANOVA. Arrows denote days when MCTR3 was administered. (C,D) paws were harvested on day 25, and cells liberated from the joints and the expression of phenotypic markers was evaluated on joint macrophages using flow cytometry and PLS-DA. (C) scores plot with highlighted regions denoting the clusters representing cells from each group and (D) VIP scores for each of the markers evaluated. Each dot in the score plot represents a separate mouse. (E-H) Arthritis was induced in DBA/1 mice by administration of 10 μg G6PI in CFA on Day 0. On day 24, 26 and 28 (denoted in blue arrows), mice were administered 1 μg/mouse MCTR3 or vehicle (PBS+0.1% EtOH) i.v. and (E) clinical scores and (F) paw oedema were measured. Results are mean±SEM, n=mice 7 per group from 2 separate experiments. Statistical differences were evaluated using a Two-Way ANOVA. (G-H) paws were harvested on day 36, and cells liberated from the joints and the expression of phenotypic markers was evaluated on joint macrophages using flow cytometry and PLS-DA. (G) scores plot with highlighted regions denoting the clusters representing cells from each group and (H) VIP scores for each of the markers evaluated. Each dot in the score plot represents a separate mouse.
FIG. 2: MCTR3 promotes bone and cartilage repair. C57BL/6 mice were administered 100 μL K/B×N serum i.p. on day 0, 2 and 8. Mice were treated with 1 μg/mouse MCTR3 or vehicle (PBS+0.1% EtOH) i.v. on day 10, 12 and 14. Hind paws and blood were collected on day 25 and A) glycosaminoglycan content was evaluated using Safranin-O staining. (left and centre panels) Representative images from Safranin-O stained knee joints and (right panel) quantification of Safranin-O stained knee joints. Results are mean±SEM, n=8 per group. Statistical differences were evaluated using Mann-Whitney U test. B-D) Expression of collagen type 2 (Col 2) and collagen type X (Col X) was evaluated using immunohistochemistry. B) Representative images from immunofluorescent assessment of Col 2 and Col X expression, C) mean intensity of Col 2 and D) average number of cells expressing Col X. Results are mean±SEM, n=5 per group, statistical differences were evaluated using Mann-Whitney U test. E-I) microCT analysis was performed on ankle joints ex vivo to assess bone callus cover. D) Representative images of ankles from vehicle and MCTR3 treated mice, where red represents the callus area. F) Callus tissue volume, G) bone volume, H) bone surface and I) the ratio of bone surface to bone volume of the ankles from mice treated with either vehicle or MCTR3. Results are mean±SEM, n=8 per group from two separate experiments. Statistical differences were evaluated Mann-Whitney U test. J,K) Blood was collected at the end of the experiment and plasma PINP and CTX-I levels were assessed. Results are mean±SEM, n=5 for Vehicle and n=7 for MCTR3 groups. Statistical differences were evaluated Mann Whitney U test.
FIG. 8: MCTR3 decreased leukocyte infiltration and cartilage damage in arthritic mice. Related to FIG. 1. C57BL/6 mice were administered 100 μL K/B×N serum i.p. on day 0, 2 and 8. Mice were treated with 1 μg/mouse MCTR3 or vehicle i.v. (PBS+0.1% EtOH) on day 10, 12 and 14. Hind paws were collected on day 25, fixed and stained using H&E stain. (A) representative images (B) Pannus size (C) leukocyte infiltration and (D) cartilage damage were evaluated. Results are mean±SEM. n=5 mice per group. IFP=intrapatellar fat, M=meniscus, TB=Tibia, PF=Pannus formation, Red arrows denote leukocyte infiltration. […]

[2] = test system: G6PI peptide induced arthritis in DBA/1 mice; test: G6PI peptide induced arthritis, MCTR3 treatment; assay type: in vivo, mouse
Procedure: as §1
FIG. 10: MCTR3 promotes bone and cartilage repair in arthritic mice. G6PI peptide (10 μg/mouse) in CFA was administered to DBA/1 mice ([…]) and mice were treated with either vehicle (PBS+0.1% EtOH) or 1 μg/mouse MCTR3 i.v. on day 24, 26 and 28. On day 36, hind paws were harvested for histological analysis. A) Representative images from knee joints from a vehicle and MCTR3 treated mouse stained with Safranin-O and B) quantitative analysis of Safranin O staining. Results are mean±SEM n=5 mice per group. C-D) microCT analysis was performed in vivo on day 24 and 35, to evaluate bone erosion in the arthritic knees. […] Results are mean±SEM and expressed as percent change from values obtained on day 24 for each mouse. n=4 mice per group. Statistical differences were evaluated using a Mann-Whitney U test.
We next assessed whether the protective activities of MCTR3 were retained in a model of adaptive immune system driven arthritis, using the glucose-6-phosphate isomerase peptide driven model of inflammatory arthritis (Schubert et al., 2004, J Immunol 172, 4503-4509). Here, administration of MCTR3 during the course of arthritic inflammation also led to a reduction in joint inflammation as measured by a reduction in both clinical scores and joint oedema (FIG. 1E,F). […] This shift in phenotype was linked with an upregulation of three phenotypic markers, including Arg-1 and CD11b, in cells obtained from joints of MCTR3 treated mice (FIG. 1H).
Since one of the main debilitating features of arthritis is bone erosion, we next determined whether the joint protective actions of MCTR3 also extended to the bone. For this purpose, we used microCT analysis to investigate bone volume in arthritic joints, comparing bone volumes on day 24, prior to MCTR3 treatment, to those at day 35. […] We next queried whether these bone protective activities of
G6PI peptide induced arthritis: Antigen DBA/1 mice were immunised with a G6PI emulsion (120 μL/mouse), prepared by sonication of 10 μg G6PI peptide (Sequence: IWYINCFGCETHAML; Cambridge Peptides Ltd.) in 50 μL complete Freund's adjuvant (CFA) and 50 μL DPBS^−/− per mouse (Schubert et al., 2004, J Immunol 172, 4503-4509), via intradermal injection at the base of the tail to initiate inflammatory arthritis. […]

[3] = 1 μg/mouse i.v. on day 10, 12 and 14
[4] = 1 μg/mouse i.v. on day 10, 12 and 14, hind paws day 25
[5] = 1 μg/mouse i.v., ELISA, end of experiment
[6] = 1 μg/mouse i.v., ankle joints day 25, microCT
[7] = 1 μg/mouse i.v., day 25, flow cytometry, VIP score
[8] = 1 μg/mouse i.v., day 25, immunohistochemistry
[9] = 1 μg/mouse i.v. on day 24, 26 and 28
[10] = 1 μg/mouse i.v., day 36, flow cytometry

Compound: CC/C=C\C/C=C\C[C@H](O)[C@@H](/C=C/C=C/C=C\C/C=C\CCC(=O)O)SC[C@H](N)C(=O)O [MCTR3, 13R-cysteinyl, 14S-hydroxy-4Z, 7Z, 9E, 11E, 13R, 14S, 16Z, 19Z-docosahexaenoic acid]
- clinical scores [1, 3]: significant reduction
- joint oedema [1, 3]: marked reduction
- safranin O-staining in joints (glycosaminoglycan content) ([1]; 1 μg/mouse i.v. on day 10, 12 and 14, day 25): significantly higher
- cartilage damage (H&E) [1, 4]: significantly reducing
- leukocyte infiltration (H&E) [1, 4]: significantly reducing
- resolution interval ([1]; 1 μg/mouse i.v. on day 10, 12 and 14, vehicle ~9 days): ~5 days
- plasma CTX concentrations (bone resorption marker) [1, 5]: significant reduction
- plasma PINP levels (bone formation marker) [1, 5]: similar
- bone callus size (total volume and surface area occupied by the callus) [1, 6]: smaller
- surface to volume ratio in the callus [1, 6]: significant increase
- Arginase (Arg)-1 in joint macrophages [1, 7]: upregulation
- Interleukin (IL)-10 in joint macrophages [1, 7]: upregulation
- expression of collagen 2 in joints [1, 8]: increase
- expression of collagen X in joints [1, 8]: increase
- clinical scores [2, 9]: reduction
- joint oedema [2, 9]: reduction
- safranin O-staining in joints (glycosaminoglycan content) ([2]; 1 μg/mouse i.v. on day 24, 26 and 28, day 36): significantly higher
- bone volume in arthritic knees (microCT) ([2]; 1 μg/mouse i.v., day 35 compared with day 24): increased
- Arg-1 in joint macrophages [2, 10]: upregulation
- CD11b in joint macrophages [2, 10]: upregulation
